Reference: PMC6491818, “Novel 4-Acrylamido-Quinoline Derivatives as Potent PI3K/mTOR Dual Inhibitors: The Design, Synthesis, and in vitro and in vivo Biological Evaluation” (Frontiers in Chemistry, 2019)

How the values were obtained:
[1] = tested on: prostate cancer PC3 cell line; experiment: Anti-proliferative SRB assay, PC3; assay type: cell-based; settings: PC3 cells, 72 h exposure
Experimental: (§1) The anti-proliferative activity of compounds was evaluated by sulforhodamin B (SRB) assay. After being cultured for 10 h, cells in 96-well plates were subjected to 72 h-exposure to serially diluted compound solutions. Cells were washed with PBS and fixed with trichloroacetic acid (10%, W/V) at 4°C for 1 h. Then, cells were successively washed with PBS, stained for 0.5 h with SRB (0.4%, dissolved in 1% acetic acid), and washed by 1% acetic acid for 5 times. Protein-bound dye was extracted with unbuffered Tris base (10 mmol). After calculating the percent inhibition from absorbance, measured at 515 nm with a multiscan spectrum (Thermo Electron Co., Vantaa, Finland), the curves were fitted in Graphpad Prism 5 to give GI50 values.

[2] = tested on: colorectal cancer HCT116 cell line; experiment: Anti-proliferative SRB assay, HCT116; assay type: cell-based; settings: 72 h exposure; for GI50: Homo sapiens, HCT-116, HCT116 cells; for GI50 HCT116: HCT116 cells
Experimental: as §1

[3] = target: PI3Kα (Homo sapiens, UniProt P42336); experiment: PI3Kα enzymatic assay (Kinase-Glo Luminescent Kinase assay); assay type: biochemical
Experimental: (§2) Kinase-Glo Luminescent Kinase assay (Promega) was performed to determine the PI3Kα inhibitory activity, while ADP-Glo Luminescent assay (Promega) was performed to identify the inhibitory activity against PI3Kβ, γ, or δ. The kinase buffer was composed of HEPES (50 mM, pH 7.5), MgCl2 (3 mM), EGTA (1 mM), NaCl (100 mM), CHAPS (0.03%) and DTT (2 mM). The serially diluted compound solutions (2.5 mL) were successively added to a 384-well plate. Afterwards, the solution of kinase (2.5 mL) in the kinase buffer and the solution of substrate (5 mL) in the kinase buffer containing PIP2 and ATP were added to each well of the assay plate for starting the reaction. Kinase buffer was added instead to the control well without enzyme. […] After being incubated at room temperature for 1 h, Kinase-Glo reagent (10 mL) was added to each well of the PI3Kα assay plate to quench the reaction. […] The mixture was treated briefly with centrifuge, shaken slowly, and equilibrated for 40 min. Kinase Detection reagent (10 mL) was added to each well. Before reading on a plate reader for luminescence, the resultant mixture was incubated at room temperature for 1 h. After calculating the percent inhibition from the RLU values, the curves were fitted in Graphpad Prism 5 to give IC50 values.

[4] = target: PI3Kγ (Homo sapiens, UniProt P48736); experiment: PI3Kγ enzymatic assay (ADP-Glo Luminescent assay); assay type: biochemical
Experimental: Kinase-Glo Luminescent Kinase assay (Promega) was performed to determine the PI3Kα inhibitory activity, while ADP-Glo Luminescent assay (Promega) was performed to identify the inhibitory activity against PI3Kβ, γ, or δ. The kinase buffer was composed of HEPES (50 mM, pH 7.5), MgCl2 (3 mM), EGTA (1 mM), NaCl (100 mM), CHAPS (0.03%) and DTT (2 mM). The serially diluted compound solutions […] were successively added to a 384-well plate. Afterwards, the solution of kinase […] in the kinase buffer and the solution of substrate (5 mL) in the kinase buffer containing PIP2 and ATP were added to each well of the assay plate for starting the reaction. Kinase buffer was added instead to the control well without enzyme. The final concentrations of PI3Kα, PI3Kβ, PI3Kγ, PI3Kδ, PIP2, and ATP in corresponding kinase reaction mixture were 1.65 nM, 4.8 nM, 7.6 nM, 5.7 nM, […], respectively. After being incubated at room temperature for 1 h, Kinase-Glo reagent […] was added to each well of the PI3Kα assay plate to quench the reaction. Subsequently, the mixture needs to be mixed briefly with centrifuge and shaken slowly for 15 min before being read on a plate reader for luminescence. As for PI3Kβ, γ, or δ, reaction mixture (5 mL) was transferred to a new 384-plate and ADP-Glo reagent (5 mL) was added for stopping the reaction. The mixture was treated briefly with centrifuge, shaken slowly, and equilibrated for 40 min. Kinase Detection reagent […] was added to each well. Before reading on a plate reader for luminescence, the resultant mixture was incubated at room temperature for 1 h. After calculating the percent inhibition from the RLU values, the curves were fitted in Graphpad Prism 5 to give IC50 values.

[5] = target: PI3Kβ (Homo sapiens, UniProt P42338); experiment: PI3Kβ enzymatic assay (ADP-Glo Luminescent assay); assay type: biochemical
Experimental: as §2

[6] = target: PI3Kδ (Homo sapiens, UniProt O00329); experiment: PI3Kδ enzymatic assay (ADP-Glo Luminescent assay); assay type: biochemical
Experimental: as §2

[7] = target: mTOR (1362-end, Millipore) (Homo sapiens, UniProt P42345); experiment: mTOR enzymatic assay (Lance Ultra assay); assay type: biochemical
mTOR (1362-end, Millipore), sequence (P42345 1362-2549 limits assumed): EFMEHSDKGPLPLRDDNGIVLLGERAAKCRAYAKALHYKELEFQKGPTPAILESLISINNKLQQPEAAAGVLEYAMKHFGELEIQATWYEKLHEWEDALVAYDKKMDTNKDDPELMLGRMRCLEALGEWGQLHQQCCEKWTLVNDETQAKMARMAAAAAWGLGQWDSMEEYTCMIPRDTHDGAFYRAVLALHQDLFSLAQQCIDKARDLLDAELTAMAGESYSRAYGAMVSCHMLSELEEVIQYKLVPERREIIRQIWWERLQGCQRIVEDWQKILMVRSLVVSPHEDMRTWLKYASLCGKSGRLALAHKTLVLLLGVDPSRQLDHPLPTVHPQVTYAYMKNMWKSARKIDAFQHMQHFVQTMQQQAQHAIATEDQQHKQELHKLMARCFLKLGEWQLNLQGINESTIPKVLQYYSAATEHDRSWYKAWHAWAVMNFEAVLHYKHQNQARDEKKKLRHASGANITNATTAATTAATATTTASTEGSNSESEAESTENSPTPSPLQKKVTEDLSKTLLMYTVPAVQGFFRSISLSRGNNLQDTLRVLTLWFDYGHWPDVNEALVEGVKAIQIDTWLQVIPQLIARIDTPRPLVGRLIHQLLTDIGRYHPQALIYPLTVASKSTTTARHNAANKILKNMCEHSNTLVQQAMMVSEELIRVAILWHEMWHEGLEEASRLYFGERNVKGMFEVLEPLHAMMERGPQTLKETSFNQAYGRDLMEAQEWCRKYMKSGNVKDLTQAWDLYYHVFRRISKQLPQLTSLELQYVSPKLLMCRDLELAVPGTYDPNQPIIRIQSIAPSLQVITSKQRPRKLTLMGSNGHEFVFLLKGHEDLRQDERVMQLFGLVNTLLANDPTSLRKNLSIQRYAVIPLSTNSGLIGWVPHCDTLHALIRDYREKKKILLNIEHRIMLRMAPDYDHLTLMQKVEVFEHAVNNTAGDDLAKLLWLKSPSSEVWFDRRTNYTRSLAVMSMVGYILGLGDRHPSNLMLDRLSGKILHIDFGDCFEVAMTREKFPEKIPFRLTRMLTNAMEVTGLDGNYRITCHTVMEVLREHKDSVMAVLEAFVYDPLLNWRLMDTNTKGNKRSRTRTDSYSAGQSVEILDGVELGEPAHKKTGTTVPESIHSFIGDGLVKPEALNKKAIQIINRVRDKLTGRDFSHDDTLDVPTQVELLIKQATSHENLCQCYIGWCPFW
Experimental: The kinase buffer was composed of HEPES (50 mM, pH 7.5), MgCl2 (10 mM), EGTA (1 mM), MnCl2 (3 mM), Tween-20 (0.01%) and DTT (2 mM). The solution of substrate in the kinase buffer contained ULight-4E-BP1 peptide (Thr37/46, PE) and ATP. […] After being incubated at room temperature for 1 h, kinase detection buffer (10 mL) containing EDTA and Eu-anti-phospho-4E-BP1 antibody (Thr37/46, PE) was added to each well of the assay plate. Before reading on a plate reader, the mixture needs to be mixed briefly with centrifuge and then allowed to equilibrate for 1 h. After calculating the percent inhibition from Lance signal, the curves were fitted in Graphpad Prism 5 to give IC50 values.

PI3Kα, sequence (P42336 whole entry): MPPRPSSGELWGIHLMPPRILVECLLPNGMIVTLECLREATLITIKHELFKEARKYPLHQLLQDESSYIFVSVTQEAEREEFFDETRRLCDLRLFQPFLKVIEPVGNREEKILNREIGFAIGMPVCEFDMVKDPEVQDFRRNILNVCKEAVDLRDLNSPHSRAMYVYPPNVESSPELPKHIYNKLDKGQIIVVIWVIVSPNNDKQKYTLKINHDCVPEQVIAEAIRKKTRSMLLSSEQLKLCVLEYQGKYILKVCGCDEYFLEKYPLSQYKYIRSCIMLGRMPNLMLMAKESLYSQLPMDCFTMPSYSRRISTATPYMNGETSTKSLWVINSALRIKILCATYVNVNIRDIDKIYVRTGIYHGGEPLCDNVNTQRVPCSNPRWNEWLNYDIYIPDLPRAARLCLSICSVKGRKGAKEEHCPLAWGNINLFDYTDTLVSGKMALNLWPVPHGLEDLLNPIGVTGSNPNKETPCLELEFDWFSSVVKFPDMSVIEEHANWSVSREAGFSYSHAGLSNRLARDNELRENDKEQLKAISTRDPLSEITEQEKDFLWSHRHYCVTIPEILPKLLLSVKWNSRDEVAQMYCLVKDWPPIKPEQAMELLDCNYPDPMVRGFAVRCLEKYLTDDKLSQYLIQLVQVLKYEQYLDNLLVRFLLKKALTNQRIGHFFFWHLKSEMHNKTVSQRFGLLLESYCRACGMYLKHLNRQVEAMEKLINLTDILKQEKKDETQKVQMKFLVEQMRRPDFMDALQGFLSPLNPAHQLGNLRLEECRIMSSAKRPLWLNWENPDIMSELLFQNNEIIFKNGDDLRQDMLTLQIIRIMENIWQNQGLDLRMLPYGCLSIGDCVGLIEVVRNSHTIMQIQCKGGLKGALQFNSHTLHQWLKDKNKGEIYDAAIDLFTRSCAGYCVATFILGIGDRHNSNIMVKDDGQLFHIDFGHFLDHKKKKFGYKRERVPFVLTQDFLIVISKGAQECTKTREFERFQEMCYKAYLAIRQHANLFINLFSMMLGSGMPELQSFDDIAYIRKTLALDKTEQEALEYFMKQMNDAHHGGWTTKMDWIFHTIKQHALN
PI3Kα, sequence (P27986 whole entry partner): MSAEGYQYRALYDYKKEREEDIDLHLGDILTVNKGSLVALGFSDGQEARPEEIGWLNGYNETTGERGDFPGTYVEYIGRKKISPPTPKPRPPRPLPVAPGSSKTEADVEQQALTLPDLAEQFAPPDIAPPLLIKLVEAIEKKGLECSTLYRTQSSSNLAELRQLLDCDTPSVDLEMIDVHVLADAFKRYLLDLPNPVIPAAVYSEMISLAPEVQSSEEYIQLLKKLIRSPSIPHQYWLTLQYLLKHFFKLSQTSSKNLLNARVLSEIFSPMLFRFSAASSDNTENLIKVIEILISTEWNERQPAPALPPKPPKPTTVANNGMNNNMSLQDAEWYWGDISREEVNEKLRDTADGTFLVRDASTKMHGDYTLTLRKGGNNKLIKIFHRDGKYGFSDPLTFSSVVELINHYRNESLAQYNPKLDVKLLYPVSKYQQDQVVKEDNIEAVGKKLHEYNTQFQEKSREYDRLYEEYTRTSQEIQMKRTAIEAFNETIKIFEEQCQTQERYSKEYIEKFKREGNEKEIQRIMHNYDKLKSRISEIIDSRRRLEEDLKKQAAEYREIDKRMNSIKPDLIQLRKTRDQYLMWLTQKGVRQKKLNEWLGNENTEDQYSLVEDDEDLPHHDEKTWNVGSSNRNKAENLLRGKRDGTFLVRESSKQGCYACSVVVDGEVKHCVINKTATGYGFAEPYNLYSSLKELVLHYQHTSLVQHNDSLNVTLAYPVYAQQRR
PI3Kγ, sequence (P48736 whole entry): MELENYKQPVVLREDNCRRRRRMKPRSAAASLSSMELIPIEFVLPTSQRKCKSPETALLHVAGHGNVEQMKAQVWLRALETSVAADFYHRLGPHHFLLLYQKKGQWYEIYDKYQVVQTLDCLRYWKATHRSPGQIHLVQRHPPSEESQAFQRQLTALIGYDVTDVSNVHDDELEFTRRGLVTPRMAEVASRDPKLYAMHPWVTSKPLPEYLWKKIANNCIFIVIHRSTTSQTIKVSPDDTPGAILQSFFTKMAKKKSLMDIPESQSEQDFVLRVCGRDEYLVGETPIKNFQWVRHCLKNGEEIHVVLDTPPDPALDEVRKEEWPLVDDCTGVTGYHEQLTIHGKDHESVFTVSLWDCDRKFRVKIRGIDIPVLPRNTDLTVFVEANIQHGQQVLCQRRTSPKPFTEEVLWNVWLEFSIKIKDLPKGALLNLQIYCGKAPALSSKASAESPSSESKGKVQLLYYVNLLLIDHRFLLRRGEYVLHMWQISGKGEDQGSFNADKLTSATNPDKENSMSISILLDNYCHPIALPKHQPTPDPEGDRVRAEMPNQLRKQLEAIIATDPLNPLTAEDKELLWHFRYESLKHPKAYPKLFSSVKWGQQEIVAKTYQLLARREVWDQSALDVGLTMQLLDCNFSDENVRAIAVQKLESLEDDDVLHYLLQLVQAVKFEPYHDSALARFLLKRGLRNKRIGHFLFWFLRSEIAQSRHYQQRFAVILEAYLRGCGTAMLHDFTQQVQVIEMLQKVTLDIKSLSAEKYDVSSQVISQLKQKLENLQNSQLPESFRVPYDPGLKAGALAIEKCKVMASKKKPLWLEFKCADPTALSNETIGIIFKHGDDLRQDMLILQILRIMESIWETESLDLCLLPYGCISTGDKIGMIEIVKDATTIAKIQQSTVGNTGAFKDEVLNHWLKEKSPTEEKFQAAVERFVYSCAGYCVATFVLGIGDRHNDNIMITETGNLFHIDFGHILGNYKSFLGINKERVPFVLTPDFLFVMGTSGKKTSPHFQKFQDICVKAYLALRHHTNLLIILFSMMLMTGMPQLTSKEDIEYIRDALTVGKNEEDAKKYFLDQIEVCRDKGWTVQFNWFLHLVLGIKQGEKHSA

GI50 ([1]; Homo sapiens, PC-3, 72 h)	GI50 [2]	IC50 [3]	IC50 [4]	GI50 [1]	GI50 HCT116 [2]	IC50 [5]	IC50 [6]	IC50 [7]	SMILES
950 nM	1460 nM	0.62 nM							COc1ncc(-c2ccc3nccc(/C=C/C(=O)N4CCCC4)c3c2)cc1NS(=O)(=O)c1ccc(F)cc1F [8f, (E)-2,4-difluoro-N-(2-methoxy-5-(4-(3-oxo-3-(pyrrolidin-1-yl)prop-1-en-1-yl)quinolin-6-yl)pyridin-3-yl)benzenesulfonamide]
220 nM	180 nM		0.44 nM						COc1ncc(-c2ccc3nccc(-c4ccnnc4)c3c2)cc1NS(=O)(=O)c1ccc(F)cc1F [GSK2126458, reference compound]
1310 nM	1560 nM	0.75 nM							COc1ncc(-c2ccc3nccc(/C=C/C(=O)N4CCCC(O)C4)c3c2)cc1NS(=O)(=O)c1ccc(F)cc1F (stereo not shown) [8l, (E)-2,4-difluoro-N-(5-(4-(3-(3-hydroxypiperidin-1-yl)-3-oxoprop-1-en-1-yl)quinolin-6-yl)-2-methoxypyridin-3-yl)benzenesulfonamide]
1430 nM	1790 nM	1.1 nM							COc1ncc(-c2ccc3nccc(/C=C/C(=O)NCCN4CCOCC4)c3c2)cc1NS(=O)(=O)c1ccc(F)cc1F [8n, (E)-3-(6-(5-((2,4-difluorophenyl)sulfonamido)-6-methoxypyridin-3-yl)quinolin-4-yl)-N-(2-morpholinoethyl)acrylamide]
4830 nM	1520 nM	1.8 nM							COc1ncc(-c2ccc3nccc(/C=C/C(=O)Nc4ccccc4)c3c2)cc1NS(=O)(=O)c1ccc(F)cc1F [8o, (E)-3-(6-(5-((2,4-difluorophenyl)sulfonamido)-6-methoxypyridin-3-yl)quinolin-4-yl)-N-phenylacrylamide]
< 500 nM	510 nM	0.53 nM		360 nM	sub-micromolar				COc1ncc(-c2ccc3nccc(/C=C/C(=O)N4CCOCC4)c3c2)cc1NS(=O)(=O)c1ccc(F)cc1F [8h, (E)-2,4-difluoro-N-(2-methoxy-5-(4-(3-morpholino-3-oxoprop-1-en-1-yl)quinolin-6-yl)pyridin-3-yl)benzenesulfonamide]
< 500 nM	320 nM	0.79 nM		280 nM	sub-micromolar				COc1ncc(-c2ccc3nccc(/C=C/C(=O)N4CCC(O)CC4)c3c2)cc1NS(=O)(=O)c1ccc(F)cc1F [8k, (E)-2,4-difluoro-N-(5-(4-(3-(4-hydroxypiperidin-1-yl)-3-oxoprop-1-en-1-yl)quinolin-6-yl)-2-methoxypyridin-3-yl)benzenesulfonamide]
2500 nM	1300 nM	0.68 nM							COc1ncc(-c2ccc3nccc(/C=C/C(=O)N4CCCCC4)c3c2)cc1NS(=O)(=O)c1ccc(F)cc1F [8g, (E)-2,4-difluoro-N-(2-methoxy-5-(4-(3-oxo-3-(piperidin-1-yl)prop-1-en-1-yl)quinolin-6-yl)pyridin-3-yl)benzenesulfonamide]
1870 nM	1560 nM	1.03 nM							COc1ncc(-c2ccc3nccc(/C=C/C(=O)NC4CC4)c3c2)cc1NS(=O)(=O)c1ccc(F)cc1F [8d, (E)-N-cyclopropyl-3-(6-(5-((2,4-difluorophenyl)sulfonamido)-6-methoxypyridin-3-yl)quinolin-4-yl)acrylamide]
7160 nM	3670 nM	14.3 nM							COc1ncc(-c2ccc3ncccc3c2)cc1NS(=O)(=O)c1ccc(F)cc1F [compound 10, 2,4-Difluoro-N-(2-methoxy-5-(quinolin-6-yl)pyridin-3-yl)benzenesulfonamide]
880 nM	970 nM	1.9 nM							COc1ncc(-c2ccc3nccc(/C=C/C(=O)N4CCN(C(C)C)CC4)c3c2)cc1NS(=O)(=O)c1ccc(F)cc1F [8j, (E)-2,4-difluoro-N-(5-(4-(3-(4-isopropylpiperazin-1-yl)-3-oxoprop-1-en-1-yl)quinolin-6-yl)-2-methoxypyridin-3-yl)benzenesulfonamide]
1900 nM	700 nM	0.63 nM							COc1ncc(-c2ccc3nccc(/C=C/C(=O)NC(C)(C)C)c3c2)cc1NS(=O)(=O)c1ccc(F)cc1F [8a, (E)-N-(tert-butyl)-3-(6-(5-((2,4-difluorophenyl)sulfonamido)-6-methoxypyridin-3-yl)quinolin-4-yl)acrylamide]
840 nM	1130 nM	2.03 nM							COCCNC(=O)/C=C/c1ccnc2ccc(-c3cnc(OC)c(NS(=O)(=O)c4ccc(F)cc4F)c3)cc12 [8b, (E)-3-(6-(5-((2,4-difluorophenyl)sulfonamido)-6-methoxypyridin-3-yl)quinolin-4-yl)-N-(2-methoxyethyl)acrylamide]
1480 nM	1250 nM	1.43 nM							COc1ncc(-c2ccc3nccc(/C=C/C(=O)NC4CCC4)c3c2)cc1NS(=O)(=O)c1ccc(F)cc1F [8e, (E)-N-cyclobutyl-3-(6-(5-((2,4-difluorophenyl)sulfonamido)-6-methoxypyridin-3-yl)quinolin-4-yl)acrylamide]
< 500 nM	960 nM	0.67 nM	0.5 nM	450 nM	sub-micromolar	1.2 nM	1.3 nM	1.2 nM	COc1ncc(-c2ccc3nccc(/C=C/C(=O)N(C)CCO)c3c2)cc1NS(=O)(=O)c1ccc(F)cc1F [8c, (E)-3-(6-(5-((2,4-difluorophenyl)sulfonamido)-6-methoxypyridin-3-yl)quinolin-4-yl)-N-(2-hydroxyethyl)-N-methylacrylamide]
2560 nM	1290 nM	0.68 nM							COc1ncc(-c2ccc3nccc(/C=C/C(=O)N4CCC(CO)CC4)c3c2)cc1NS(=O)(=O)c1ccc(F)cc1F [8m, (E)-2,4-difluoro-N-(5-(4-(3-(4-(hydroxymethyl)piperidin-1-yl)-3-oxoprop-1-en-1-yl)quinolin-6-yl)-2-methoxypyridin-3-yl)benzenesulfonamide]
